Read-outs that look alike come from different tables or passages of the source.
Target: T1, F508delCFTR (Homo sapiens, UniProt P13569, DEL508-508)
T1 construct: expressed in transfected cells; host or cells: CFBE41o- (human lung derived epithelial cell line), doxycycline-inducible expression
Assay: Cell Surface Expression-Horse Radish Peroxidase (CSE-HRP) assay
Type: cell-based
Details: CFBE41o-F508delCFTR-HRP cells; for Maximum % activity (with co-corrector): with co-corrector (2 μM); for Maximum % activity (with co-corrector) / Maximum % activity (without co-corrector): normalized to on-plate positive control, highest concentration 20 μM
Method in brief: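 CFBE41o- cells expressed F508delCFTR with HRP in the fourth exofacial loop, induced by 0.5 μg/mL doxycycline for 72 h at 37 °C. Compounds alone or with 2 μM co-corrector ran 18–24 h at 33 °C, 8-point 3-fold from 20 μM. Washed-cell luminol luminescence was normalized to DMSO and positive control, fitted sigmoidally for EC50 (three plates).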

[1] = test compound without co-corrector, 18-24 hours at 33° C., read-out: EC50 (without co-corrector)
[2] = with co-corrector (2 μM of 3-[(2R,4R)-4-({[1-(2,2-difluoro-1,3-benzodioxol-5-yl)cyclopropyl]carbonyl}amino)-7-methoxy-3,4-dihydro-2H-chromen-2-yl]benzoic acid), read-out: EC50 (with co-corrector)

T1 sequence (P13569 with tags, fused parts or gaps DEL508-508): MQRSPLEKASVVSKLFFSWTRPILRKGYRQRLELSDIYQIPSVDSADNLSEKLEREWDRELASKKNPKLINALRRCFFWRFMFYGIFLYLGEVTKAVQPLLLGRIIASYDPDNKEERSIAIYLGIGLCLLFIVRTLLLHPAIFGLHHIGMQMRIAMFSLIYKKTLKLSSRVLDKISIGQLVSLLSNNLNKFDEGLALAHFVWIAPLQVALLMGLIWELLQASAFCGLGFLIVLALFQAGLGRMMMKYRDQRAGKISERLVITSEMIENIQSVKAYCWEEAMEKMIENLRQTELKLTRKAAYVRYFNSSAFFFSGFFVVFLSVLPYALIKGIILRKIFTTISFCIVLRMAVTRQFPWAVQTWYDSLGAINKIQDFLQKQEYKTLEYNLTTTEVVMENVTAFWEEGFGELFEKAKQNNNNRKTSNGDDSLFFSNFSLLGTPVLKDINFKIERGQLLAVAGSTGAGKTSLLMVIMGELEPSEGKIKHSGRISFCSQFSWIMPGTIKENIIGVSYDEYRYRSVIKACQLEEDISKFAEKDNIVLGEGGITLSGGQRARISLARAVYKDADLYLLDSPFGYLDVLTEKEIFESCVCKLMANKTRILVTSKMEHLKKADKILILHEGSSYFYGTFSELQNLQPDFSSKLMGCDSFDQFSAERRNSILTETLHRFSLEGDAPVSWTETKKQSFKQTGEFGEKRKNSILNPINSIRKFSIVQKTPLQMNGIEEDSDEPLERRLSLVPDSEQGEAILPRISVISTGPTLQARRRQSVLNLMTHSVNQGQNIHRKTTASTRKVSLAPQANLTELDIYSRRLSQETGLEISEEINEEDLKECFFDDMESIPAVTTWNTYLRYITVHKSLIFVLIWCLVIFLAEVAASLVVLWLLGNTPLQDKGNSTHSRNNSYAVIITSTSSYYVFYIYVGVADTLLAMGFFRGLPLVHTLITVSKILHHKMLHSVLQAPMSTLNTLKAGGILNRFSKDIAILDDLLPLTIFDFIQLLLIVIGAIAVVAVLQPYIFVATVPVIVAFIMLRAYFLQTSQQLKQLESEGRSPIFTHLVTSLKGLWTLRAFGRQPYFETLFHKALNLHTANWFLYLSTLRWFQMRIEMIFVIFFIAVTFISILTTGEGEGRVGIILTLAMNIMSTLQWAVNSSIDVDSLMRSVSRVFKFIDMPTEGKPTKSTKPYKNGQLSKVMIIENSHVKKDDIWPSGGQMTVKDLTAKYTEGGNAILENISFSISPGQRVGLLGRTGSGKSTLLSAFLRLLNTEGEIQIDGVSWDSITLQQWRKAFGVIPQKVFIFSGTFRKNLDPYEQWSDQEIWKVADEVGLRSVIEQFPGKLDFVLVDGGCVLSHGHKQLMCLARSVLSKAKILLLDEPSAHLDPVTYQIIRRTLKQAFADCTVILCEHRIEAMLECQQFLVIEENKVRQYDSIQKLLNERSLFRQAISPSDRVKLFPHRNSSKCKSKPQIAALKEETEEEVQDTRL

For `COc1ncc(C2CCC2)cc1CO[C@H]1[C@H](C(C)(C)C)[C@@H](C(=O)O)N(C(=O)O[C@@H](C)C(F)(F)F)[C@H]1c1cccnc1OC(C)C` [Example 267, (2S,3R,4S,5S)-3-tert-butyl-4-[(5-cyclobutyl-2-methoxypyridin-3-yl)methoxy]-5-{2-[(propan-2-yl)oxy]pyridin-3-yl}-1-({[(2S)-1,1,1-trifluoropropan-2-yl]oxy}carbonyl)pyrrolidine-2-carboxylic acid], the EC50 [1] was 1000 to 10000 nM, the EC50 [2] was less than 1000 nM and the “Maximum % activity (with co-corrector)” value was “+++ (≥350)”. For the same compound, the “Maximum % activity (without co-corrector)” value was “++ (≥100 and <200)”.
`COc1ccc(C(F)(F)F)cc1C(O)CO[C@H]1[C@H](C(C)(C)C)[C@@H](C(=O)O)N(C(=O)[C@@H]2CCCCO2)[C@H]1c1ccccc1C` (stereo partly drawn) [Example 268, (2S,3R,4S,5S)-3-tert-butyl-4-{2-hydroxy-2-[2-methoxy-5-(trifluoromethyl)phenyl]ethoxy}-5-(2-methylphenyl)-1-[(2S)-oxane-2-carbonyl]pyrrolidine-2-carboxylic acid] was tested, and the EC50 [1] was 1000 to 10000 nM, the EC50 [2] was 1000 to 10000 nM and the “Maximum % activity (with co-corrector)” value was “+++ (≥350)”. The “Maximum % activity (without co-corrector)” value was “+ (<100)”.
In the case of `COc1ccc(C(F)(F)F)cc1C(CO[C@H]1[C@H](C(C)(C)C)[C@@H](C(=O)O)N(C(=O)[C@@H]2CCCCO2)[C@H]1c1ccccc1C)OC` (stereo partly drawn) [Example 269, (2S,3R,4S,5S)-3-tert-butyl-4-{2-methoxy-2-[2-methoxy-5-(trifluoromethyl)phenyl]ethoxy}-5-(2-methylphenyl)-1-[(2S)-oxane-2-carbonyl]pyrrolidine-2-carboxylic acid], the EC50 [1] is reported as 1000 to 10000 nM, the EC50 [2] is reported as less than 1000 nM and the “Maximum % activity (with co-corrector)” value is reported as “+++ (≥350)”. The “Maximum % activity (without co-corrector)” value was “+++ (≥200)”.
In the case of `COc1ccc(C(C)(C)C)cc1CO[C@H]1[C@H](C(C)(C)OC)[C@@H](C(=O)O)N(C(=O)[C@@H]2CCCCO2)[C@H]1c1ccccc1C(C)C` [Example 270, (2S,3R,4S,5S)-4-[(5-tert-butyl-2-methoxyphenyl)methoxy]-3-(2-methoxypropan-2-yl)-1-[(2S)-oxane-2-carbonyl]-5-[2-(propan-2-yl)phenyl]pyrrolidine-2-carboxylic acid], the EC50 [1] is reported as less than 1000 nM, the EC50 [2] is reported as less than 1000 nM and the “Maximum % activity (with co-corrector)” value is reported as “+++ (≥350)”. The “Maximum % activity (without co-corrector)” value was “+++ (≥200)”.
With `COc1ncc(C(F)(F)F)cc1CO[C@H]1[C@H](C(C)(C)C)[C@@H](C(=O)O)N(C(=O)O[C@@H](C)C(F)(F)F)[C@H]1c1cccnc1OC(C)C` [Example 271, (2S,3R,4S,5S)-3-tert-butyl-4-{[2-methoxy-5-(trifluoromethyl)pyridin-3-yl]methoxy}-5-{2-[(propan-2-yl)oxy]pyridin-3-yl}-1-({[(2S)-1,1,1-trifluoropropan-2-yl]oxy}carbonyl)pyrrolidine-2-carboxylic acid] the EC50 [1] was less than 1000 nM, the EC50 [2] was less than 1000 nM and the “Maximum % activity (with co-corrector)” value was “+++ (≥350)”. The “Maximum % activity (without co-corrector)” value was “++ (≥100 and <200)”.
`COc1ccc(C(F)(F)F)cc1[C@@H](C)CO[C@H]1[C@H](C(C)(C)C)[C@@H](C(=O)O)N(C(=O)[C@@H]2CCCCO2)[C@H]1c1ccccc1C` [Example 272, (2S,3R,4S,5S)-3-tert-butyl-4-{(2R)-2-[2-methoxy-5-(trifluoromethyl)phenyl]propoxy}-5-(2-methylphenyl)-1-[(2S)-oxane-2-carbonyl]pyrrolidine-2-carboxylic acid] was tested, and the EC50 [1] was less than 1000 nM, the EC50 [2] was less than 1000 nM and the “Maximum % activity (with co-corrector)” value was “+++ (≥350)”. For the same compound, the “Maximum % activity (without co-corrector)” value was “+++ (≥200)”.
In the case of `COc1ccc(C(F)(F)F)cc1[C@H](C)CO[C@H]1[C@H](C(C)(C)C)[C@@H](C(=O)O)N(C(=O)[C@@H]2CCCCO2)[C@H]1c1ccccc1C` [Example 273, (2S,3R,4S,5S)-3-tert-butyl-4-{(2S)-2-[2-methoxy-5-(trifluoromethyl)phenyl]propoxy}-5-(2-methylphenyl)-1-[(2S)-oxane-2-carbonyl]pyrrolidine-2-carboxylic acid], the EC50 [1] is reported as less than 1000 nM, the EC50 [2] is reported as less than 1000 nM and the “Maximum % activity (with co-corrector)” value is reported as “+++ (≥350)”. The “Maximum % activity (without co-corrector)” value was “+++ (≥200)”.
In the case of `COc1ccc(C(C)(C)C)cc1CO[C@H]1[C@H](C(C)(C)C)[C@@H](C(=O)O)N(C(=O)O[C@@H](C)C(F)(F)F)[C@H]1c1cccnc1OC(C)C` [Example 274, (2S,3R,4S,5S)-3-tert-butyl-4-[(5-tert-butyl-2-methoxyphenyl)methoxy]-5-{2-[(propan-2-yl)oxy]pyridin-3-yl}-1-({[(2S)-1,1,1-trifluoropropan-2-yl]oxy}carbonyl)pyrrolidine-2-carboxylic acid], the EC50 [1] is reported as less than 1000 nM, the EC50 [2] is reported as less than 1000 nM and the “Maximum % activity (with co-corrector)” value is reported as “+++ (≥350)”. The “Maximum % activity (without co-corrector)” value was “+++ (≥200)”.
In the case of `COc1ncc(C2CCC2)cc1CO[C@H]1[C@H](C(C)(C)C)[C@@H](C(=O)O)N(C(=O)C2(C(F)(F)F)CC2)[C@H]1c1cccnc1OC(C)C` [Example 275, (2S,3R,4S,5S)-3-tert-butyl-4-[(5-cyclobutyl-2-methoxypyridin-3-yl)methoxy]-5-{2-[(propan-2-yl)oxy]pyridin-3-yl}-1-[1-(trifluoromethyl)cyclopropane-1-carbonyl]pyrrolidine-2-carboxylic acid], the EC50 [1] is reported as greater than 10000 nM, the EC50 [2] is reported as 1000 to 10000 nM and the “Maximum % activity (with co-corrector)” value is reported as “++ (≥150 and <350)”. The “Maximum % activity (without co-corrector)” value was “+ (<100)”.
In the case of `COc1ncc(C2CCC2)cc1CO[C@H]1[C@H](C(C)(C)C)[C@@H](C(=O)O)N(C(=O)C2(C(F)(F)F)CCCC2)[C@H]1c1cccnc1OC(C)C` [Example 276, (2S,3R,4S,5S)-3-tert-butyl-4-[(5-cyclobutyl-2-methoxypyridin-3-yl)methoxy]-5-{2-[(propan-2-yl)oxy]pyridin-3-yl}-1-[1-(trifluoromethyl)cyclopentane-1-carbonyl]pyrrolidine-2-carboxylic acid], the EC50 [1] is reported as greater than 10000 nM, the EC50 [2] is reported as less than 1000 nM and the “Maximum % activity (with co-corrector)” value is reported as “++ (≥150 and <350)”. The “Maximum % activity (without co-corrector)” value was “+ (<100)”.
`COc1ncc(C(F)(F)F)cc1C#CCO[C@H]1[C@H](C(C)(C)C)[C@@H](C(=O)O)N(C(=O)OC(C)C)[C@H]1c1ccccc1` [Example 277, (2S,3R,4S,5S)-3-tert-butyl-4-({3-[2-methoxy-5-(trifluoromethyl)pyridin-3-yl]prop-2-yn-1-yl}oxy)-5-phenyl-1-{[(propan-2-yl)oxy]carbonyl}pyrrolidine-2-carboxylic acid] was tested, and the EC50 [1] was less than 1000 nM, the EC50 [2] was less than 1000 nM and the “Maximum % activity (with co-corrector)” value was “+++ (≥350)”. The “Maximum % activity (without co-corrector)” value was “+ (<100)”.
For `CCc1ccccc1[C@H]1[C@@H](OCC#Cc2cc(C(F)(F)F)cnc2OC)[C@H](C(C)(C)C)[C@@H](C(=O)O)N1C(=O)[C@@H]1CCCCO1` [Example 278, (2S,3R,4S,5S)-3-tert-butyl-5-(2-ethylphenyl)-4-({3-[2-methoxy-5-(trifluoromethyl)pyridin-3-yl]prop-2-yn-1-yl}oxy)-1-[(2S)-oxane-2-carbonyl]pyrrolidine-2-carboxylic acid], the EC50 [1] was 1000 to 10000 nM, the EC50 [2] was less than 1000 nM and the “Maximum % activity (with co-corrector)” value was “+++ (≥350)”. For the same compound, the “Maximum % activity (without co-corrector)” value was “++ (≥100 and <200)”.
With `CC(C)Oc1ncccc1[C@H]1[C@@H](OCc2coc3ccc(C(F)(F)F)cc23)[C@H](C(C)(C)C)[C@@H](C(=O)O)N1C(=O)C1CCCCC1` [Example 279, (2S,3R,4S,5S)-3-tert-butyl-1-(cyclohexanecarbonyl)-5-{2-[(propan-2-yl)oxy]pyridin-3-yl}-4-{[5-(trifluoromethyl)-1-benzofuran-3-yl]methoxy}pyrrolidine-2-carboxylic acid] the EC50 [1] was less than 1000 nM, the EC50 [2] was less than 1000 nM and the “Maximum % activity (with co-corrector)” value was “+++ (≥350)”. The “Maximum % activity (without co-corrector)” value was “++ (≥100 and <200)”.
For `CCc1ccccc1[C@H]1[C@@H](OCCCc2cc(C(F)(F)F)cnc2OC)[C@H](C(C)(C)C)[C@@H](C(=O)O)N1C(=O)[C@@H]1CCCCO1` [Example 280, (2S,3R,4S,5S)-3-tert-butyl-5-(2-ethylphenyl)-4-{3-[2-methoxy-5-(trifluoromethyl)pyridin-3-yl]propoxy}-1-[(2S)-oxane-2-carbonyl]pyrrolidine-2-carboxylic acid], the EC50 [1] was less than 1000 nM, the EC50 [2] was less than 1000 nM and the “Maximum % activity (with co-corrector)” value was “+++ (≥350)”. For the same compound, the “Maximum % activity (without co-corrector)” value was “++ (≥100 and <200)”.
For `COc1ncc(C(F)(F)F)cc1CO[C@H]1[C@H](C(C)(C)C)[C@@H](C(=O)O)N(C(=O)[C@@H]2CCCCO2)[C@H]1c1cc(I)ccc1C` [Example 281, (2S,3R,4S,5S)-3-tert-butyl-5-(5-iodo-2-methylphenyl)-4-{[2-methoxy-5-(trifluoromethyl)pyridin-3-yl]methoxy}-1-[(2S)-oxane-2-carbonyl]pyrrolidine-2-carboxylic acid], the EC50 [1] was 1000 to 10000 nM, the EC50 [2] was less than 1000 nM and the “Maximum % activity (with co-corrector)” value was “++ (≥150 and <350)”. For the same compound, the “Maximum % activity (without co-corrector)” value was “+ (<100)”.
For `COc1ncc(Cl)cc1OCCO[C@H]1[C@H](C(C)(C)C)[C@@H](C(=O)O)N(C(=O)[C@@H]2CCCCO2)[C@H]1c1ccccc1C` [Example 284, (2S,3R,4S,5S)-3-tert-butyl-4-{2-[(5-chloro-2-methoxypyridin-3-yl)oxy]ethoxy}-5-(2-methylphenyl)-1-[(2S)-oxane-2-carbonyl]pyrrolidine-2-carboxylic acid], the EC50 [1] was 1000 to 10000 nM, the EC50 [2] was 1000 to 10000 nM and the “Maximum % activity (with co-corrector)” value was “+++ (≥350)”. The “Maximum % activity (without co-corrector)” value was “+ (<100)”.

From US10399940B2, “Substituted pyrrolidines and methods of use” (AbbVie S.à.r.l., priority 2016, dated 2019)
